Literature values as cited in patent publication US10034864B2, “1,2,5-oxadiazoles as inhibitors of indoleamine 2,3-dioxygenase” (Incyte Corporation, priority 2008, dated 2018).

Key:
P815 tumor = conditions: pre-immunized immune-competent mice challenged with tumor cells (Uyttenhove 2003)
LLC tumors = LLC tumors in C57Bl/6 mice, versus placebo (Friberg 2002)

In the case of `Cn1cc(C[C@H](N)C(=O)O)c2ccccc21` [Example 1-MT, 1-methyl-tryptophan], the growth of tumors (P815 tumor) is given as “inhibited” and the formation of tumors (LLC tumors) is given as “markedly delayed”.
